# Data from ChEMBL document CHEMBL1201862, “PubChem BioAssay data set” (2004).
# Where “and” joins values, the source holds several entries; their conditions need not be identical. Equal entries are not always repeated. Calls of active or inactive are those of the source.
# Key:
# [1] = molecular target: Heat shock protein HSP 90-alpha (Homo sapiens, UniProt P07900); test: Luminescence-based dose response biochemical high throughput screening assay for inhibitors of the Heat Shock Protein 90 (HSP90). [Related pubchem assays: 1831 (Summary AID.), 1846 (Confirmation screen.), 1789 (Primary screen.)]
# [2] = HEK-293T viability loss after treatment – luminescence, T-cell screen hits, cytotoxicity control for TCR NF-kB inhibitor project, dose response (AID 489026); type: functional, cell-based;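 note: cells exposed to compound about 14 hours before the viability readout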
# [3] = molecular target: T1, Protein RecA (Mycobacterium tuberculosis, UniProt P9WHJ3); test: Fluorescence Cell-Free Homogeneous Dose Retest to Identify Inhibitors of RecA-Intein Splicing Activity. [Related pubchem assays (depositor defined):AID2097, AID2223, AID489010, AID492950]; type: functional
# T1 sequence (P9WHJ3 whole entry): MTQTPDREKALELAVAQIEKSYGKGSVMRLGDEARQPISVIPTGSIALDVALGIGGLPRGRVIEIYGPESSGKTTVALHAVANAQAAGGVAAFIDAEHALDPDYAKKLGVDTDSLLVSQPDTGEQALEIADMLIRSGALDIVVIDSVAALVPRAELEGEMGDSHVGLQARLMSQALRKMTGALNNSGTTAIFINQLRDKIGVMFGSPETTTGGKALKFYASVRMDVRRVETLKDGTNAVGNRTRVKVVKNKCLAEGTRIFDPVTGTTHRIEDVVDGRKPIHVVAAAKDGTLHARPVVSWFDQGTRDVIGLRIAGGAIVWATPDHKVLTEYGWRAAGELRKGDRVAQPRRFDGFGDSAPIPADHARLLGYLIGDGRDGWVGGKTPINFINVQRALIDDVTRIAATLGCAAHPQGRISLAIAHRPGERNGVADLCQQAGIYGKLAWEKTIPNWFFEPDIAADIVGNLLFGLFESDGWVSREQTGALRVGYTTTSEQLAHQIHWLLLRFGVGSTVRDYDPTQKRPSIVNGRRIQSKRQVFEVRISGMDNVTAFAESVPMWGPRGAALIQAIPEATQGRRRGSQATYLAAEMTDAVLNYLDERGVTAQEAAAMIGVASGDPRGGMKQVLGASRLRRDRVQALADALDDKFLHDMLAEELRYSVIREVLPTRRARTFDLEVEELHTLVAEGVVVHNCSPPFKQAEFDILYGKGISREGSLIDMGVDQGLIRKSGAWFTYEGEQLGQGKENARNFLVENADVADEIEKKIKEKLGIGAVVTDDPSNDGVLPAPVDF
# [4] = molecular target: Serine/threonine-protein phosphatase (Homo sapiens, UniProt Q9BPW0); test: inhibition of protein phosphatase 5 activity – biochemical, fluorescence, dose response (AID 2395)
# Chain of Serine/threonine-protein phosphatase (Q9BPW0 whole entry): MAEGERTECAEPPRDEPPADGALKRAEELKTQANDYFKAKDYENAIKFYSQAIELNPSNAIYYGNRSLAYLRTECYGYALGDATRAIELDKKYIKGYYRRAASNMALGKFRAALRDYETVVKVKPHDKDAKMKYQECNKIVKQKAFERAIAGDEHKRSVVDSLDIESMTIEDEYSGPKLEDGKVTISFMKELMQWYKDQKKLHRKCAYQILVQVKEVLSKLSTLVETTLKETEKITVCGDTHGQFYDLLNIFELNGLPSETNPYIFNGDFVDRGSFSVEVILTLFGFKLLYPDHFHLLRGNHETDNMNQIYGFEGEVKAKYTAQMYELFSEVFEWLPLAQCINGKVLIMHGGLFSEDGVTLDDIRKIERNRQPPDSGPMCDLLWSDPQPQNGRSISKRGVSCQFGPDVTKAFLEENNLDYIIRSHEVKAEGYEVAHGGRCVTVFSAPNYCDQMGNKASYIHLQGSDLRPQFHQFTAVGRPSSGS
# [5] = NIH3T3 cell viability loss – ATP luminescence, mouse fibroblasts, counter-screen, dose response (AID 2010); type: functional, cell-based;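 note: cells exposed to compound for about 90 hours before reading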
# [6] = Trypanosoma cruzi growth suppression in host cells – NIH3T3 host cells, beta-gal luminescence, confirmation (AID 2044); type: functional, cell-based;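 note: intracellular parasites grown in NIH/3T3 mouse fibroblasts as host cells; luminescent beta-galactosidase reporter signal from transgenic T. cruzi replicating inside host cells; inhibitors lower the luminescence signal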
# [7] = molecular target: T2, Apoptotic protease-activating factor 1 (Homo sapiens, UniProt O14727); type: functional
# T2 sequence (O14727 whole entry): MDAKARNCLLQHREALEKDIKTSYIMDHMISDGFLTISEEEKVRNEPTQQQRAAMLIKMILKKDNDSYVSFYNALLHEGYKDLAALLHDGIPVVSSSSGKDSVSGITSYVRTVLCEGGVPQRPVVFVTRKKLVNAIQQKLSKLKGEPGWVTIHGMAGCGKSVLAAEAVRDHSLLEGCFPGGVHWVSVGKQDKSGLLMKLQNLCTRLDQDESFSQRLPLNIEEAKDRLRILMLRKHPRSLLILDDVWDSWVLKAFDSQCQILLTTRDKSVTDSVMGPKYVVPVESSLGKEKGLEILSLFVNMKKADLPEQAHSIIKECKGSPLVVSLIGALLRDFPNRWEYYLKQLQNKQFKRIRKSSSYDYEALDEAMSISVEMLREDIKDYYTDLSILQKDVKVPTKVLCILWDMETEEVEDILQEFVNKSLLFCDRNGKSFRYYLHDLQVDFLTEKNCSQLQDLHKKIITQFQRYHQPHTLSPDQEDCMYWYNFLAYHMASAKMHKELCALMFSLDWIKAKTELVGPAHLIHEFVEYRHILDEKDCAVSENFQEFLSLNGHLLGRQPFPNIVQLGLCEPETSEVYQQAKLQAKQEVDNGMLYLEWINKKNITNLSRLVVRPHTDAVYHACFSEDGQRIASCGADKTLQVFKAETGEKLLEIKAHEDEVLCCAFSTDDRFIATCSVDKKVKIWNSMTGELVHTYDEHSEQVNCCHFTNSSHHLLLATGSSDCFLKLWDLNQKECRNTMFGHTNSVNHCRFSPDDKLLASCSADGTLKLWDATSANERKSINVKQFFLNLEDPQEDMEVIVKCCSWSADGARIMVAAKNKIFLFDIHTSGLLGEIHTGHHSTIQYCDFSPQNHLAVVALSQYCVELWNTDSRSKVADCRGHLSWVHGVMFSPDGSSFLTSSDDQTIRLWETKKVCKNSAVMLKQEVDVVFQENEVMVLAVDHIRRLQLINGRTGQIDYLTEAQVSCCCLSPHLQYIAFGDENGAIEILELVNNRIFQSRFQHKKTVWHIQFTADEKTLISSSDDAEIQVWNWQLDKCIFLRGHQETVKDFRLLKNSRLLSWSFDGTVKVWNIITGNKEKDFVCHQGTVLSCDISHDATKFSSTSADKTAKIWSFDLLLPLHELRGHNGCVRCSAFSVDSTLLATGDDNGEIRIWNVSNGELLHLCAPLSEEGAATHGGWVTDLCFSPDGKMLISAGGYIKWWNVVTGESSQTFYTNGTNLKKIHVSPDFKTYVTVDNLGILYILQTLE
# [8] = tested on: Vero; test: viability of Vero cells under compound – cytotoxicity control for flavivirus capping enzyme inhibitors (AID 588742); type: functional; conditions: Chlorocebus sabaeus
# [9] = molecular target: T3, Replicative DNA helicase DnaB (Mycobacterium tuberculosis, UniProt P9WMR3); test: DnaB intein splicing inhibitors, dose response, biochemical, cell-free fluorescence (AID 449749); type: functional
# T3 sequence (P9WMR3 whole entry): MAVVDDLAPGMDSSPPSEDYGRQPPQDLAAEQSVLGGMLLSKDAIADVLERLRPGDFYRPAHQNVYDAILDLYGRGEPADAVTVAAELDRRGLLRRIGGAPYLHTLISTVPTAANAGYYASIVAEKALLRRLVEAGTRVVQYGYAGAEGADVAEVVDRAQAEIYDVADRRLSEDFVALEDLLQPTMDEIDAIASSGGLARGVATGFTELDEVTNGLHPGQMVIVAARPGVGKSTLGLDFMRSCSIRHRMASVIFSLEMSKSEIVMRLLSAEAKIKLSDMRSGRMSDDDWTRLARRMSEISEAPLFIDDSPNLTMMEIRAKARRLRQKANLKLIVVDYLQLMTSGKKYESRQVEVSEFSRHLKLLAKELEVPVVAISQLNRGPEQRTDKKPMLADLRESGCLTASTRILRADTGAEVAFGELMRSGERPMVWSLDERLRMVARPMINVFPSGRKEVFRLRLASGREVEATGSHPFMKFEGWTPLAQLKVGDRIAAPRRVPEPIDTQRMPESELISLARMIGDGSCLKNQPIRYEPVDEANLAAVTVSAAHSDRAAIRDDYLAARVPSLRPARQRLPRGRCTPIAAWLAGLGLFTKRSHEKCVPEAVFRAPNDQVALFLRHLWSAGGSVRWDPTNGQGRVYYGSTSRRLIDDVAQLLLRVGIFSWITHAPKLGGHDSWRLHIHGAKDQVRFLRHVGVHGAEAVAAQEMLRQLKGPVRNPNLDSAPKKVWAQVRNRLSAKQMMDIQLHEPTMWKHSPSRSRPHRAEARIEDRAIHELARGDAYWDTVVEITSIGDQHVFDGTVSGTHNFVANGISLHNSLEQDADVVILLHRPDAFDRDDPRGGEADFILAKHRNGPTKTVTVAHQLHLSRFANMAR
# [10] = tested on: Streptococcus; test: GAS UMAA2166 growth inhibition – luminescence, BacTiterGlo, counter-screen for streptokinase expression inhibitor project, dose response (AID 1915); type: functional, organism-based;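 note: potency for reduction of bacterial viability or growth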
# [11] = microbe, parasite or virus in culture; type: functional; conditions: Mycobacterium tuberculosis
# [12] = molecular target: Serine/threonine-protein phosphatase PP1-alpha catalytic subunit (Homo sapiens, UniProt P62136); test: inhibition of protein phosphatase 1 activity – biochemical, fluorescence, dose response (AID 2394)
# [13] = tested on: Streptococcus sp. 'group A'; test: Streptococcus pyogenes SK(-)GAS viability under kanamycin – luminescence, BacTiterGlo, confirmation, counter-screen for streptokinase expression inhibitor project, dose response (AID 1900); type: functional, organism-based
# [14] = molecular target: Mitochondrial peptide methionine sulfoxide reductase (Bos taurus, UniProt P54149); type: functional;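 note: absorbance read-out, biochemical high-throughput dose-response screen for MsrA inhibitors, confirmatory; recombinant bovine MsrA coupled to E. coli TrxB with NADPH and selenocystamine; potency is for inhibitors of MsrA activity on DMSO substrate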
# Chain of Mitochondrial peptide methionine sulfoxide reductase (P54149 whole entry): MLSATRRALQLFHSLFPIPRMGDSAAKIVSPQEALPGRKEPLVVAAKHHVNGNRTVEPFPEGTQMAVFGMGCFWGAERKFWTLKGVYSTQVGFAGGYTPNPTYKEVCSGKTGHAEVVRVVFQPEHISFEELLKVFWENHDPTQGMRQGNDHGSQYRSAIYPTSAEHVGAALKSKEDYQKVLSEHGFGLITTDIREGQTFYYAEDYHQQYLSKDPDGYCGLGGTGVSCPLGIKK
# [15] = molecular target: Protein-tyrosine kinase 2-beta (Homo sapiens, UniProt Q14289);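 note: potency of inhibitors of PYK2 kinase phosphorylation of poly-GT substrate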
# [16] = tested on: INS1; test: INS-1E survival protection against cytokine death – cell-based, luminescence, retest, dose response (AID 449756); type: functional; conditions: Rattus norvegicus;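 note: cell death triggered by IL-1 beta plus TNF-alpha plus IFN-gamma mixture; protective hits raise ATP signal compared with cytokine alone wells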
# [17] = molecular target: E3 ubiquitin-protein ligase Mdm2 (Homo sapiens, UniProt Q00987); test: MDM2-luc reporter signal enhancers, multi-concentration potency testing, MDM2 ubiquitin-protein ligase inhibitor program, whole-cell format, luminescence detection, 384-well microplate (AID 1394); type: functional;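 note: MDM2 E3 inhibitors raise luminescence so EC50 is for signal enhancement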
# [18] = molecular target: Ephrin type-A receptor 4 (Mus musculus, UniProt Q03137); test: EphA4 ligand-binding antagonists – biochemical, colorimetric, mouse EphA4, primary screen (AID 689); type: functional
# [19] = viability loss in THP-1 monocytes – THP-1 cells, cytotoxicity control for Vif-APOBEC3G degradation inhibitor project, dose response (AID 1117359); type: functional; conditions: THP-1
# [20] = molecular target: Bcl-2-like protein 10 (Homo sapiens, UniProt Q9HD36); test: Bcl-B/TR3 peptide binding disruption – biochemical, fluorescence polarization, FITC-TR3 peptide, selectivity assay for Bfl-1 inhibitor project, primary screen (AID 748);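 note: fluorescence polarization from a fluorescein-labelled TR3 peptide binding purified Bcl-B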
# Chain of Bcl-2-like protein 10 (Q9HD36 whole entry): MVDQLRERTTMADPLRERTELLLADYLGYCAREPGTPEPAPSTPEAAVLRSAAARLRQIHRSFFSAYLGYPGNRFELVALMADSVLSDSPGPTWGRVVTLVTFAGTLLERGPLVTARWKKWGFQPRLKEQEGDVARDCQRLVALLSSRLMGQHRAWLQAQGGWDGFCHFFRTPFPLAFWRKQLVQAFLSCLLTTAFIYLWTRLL
# [21] = molecular target: Induced myeloid leukemia cell differentiation protein Mcl-1 (Homo sapiens, UniProt Q07820); type: functional
# Chain of Induced myeloid leukemia cell differentiation protein Mcl-1 (Q07820 whole entry): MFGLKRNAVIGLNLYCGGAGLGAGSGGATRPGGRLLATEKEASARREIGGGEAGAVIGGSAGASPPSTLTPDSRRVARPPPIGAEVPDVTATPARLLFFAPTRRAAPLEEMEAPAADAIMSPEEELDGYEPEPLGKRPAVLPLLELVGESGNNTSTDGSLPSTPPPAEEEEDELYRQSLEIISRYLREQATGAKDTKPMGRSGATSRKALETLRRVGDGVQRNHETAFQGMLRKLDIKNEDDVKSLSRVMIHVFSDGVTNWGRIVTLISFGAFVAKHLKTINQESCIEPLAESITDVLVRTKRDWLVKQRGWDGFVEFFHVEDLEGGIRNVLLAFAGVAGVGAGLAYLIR
# [22] = molecular target: DNA (cytosine-5)-methyltransferase 1 (Homo sapiens, UniProt P26358); test: inhibition of DNA methylation by DNMT1 – biochemical, fluorescent molecular beacon, confirmation (AID 602386); type: functional
# Chain of DNA (cytosine-5)-methyltransferase 1 (P26358 whole entry): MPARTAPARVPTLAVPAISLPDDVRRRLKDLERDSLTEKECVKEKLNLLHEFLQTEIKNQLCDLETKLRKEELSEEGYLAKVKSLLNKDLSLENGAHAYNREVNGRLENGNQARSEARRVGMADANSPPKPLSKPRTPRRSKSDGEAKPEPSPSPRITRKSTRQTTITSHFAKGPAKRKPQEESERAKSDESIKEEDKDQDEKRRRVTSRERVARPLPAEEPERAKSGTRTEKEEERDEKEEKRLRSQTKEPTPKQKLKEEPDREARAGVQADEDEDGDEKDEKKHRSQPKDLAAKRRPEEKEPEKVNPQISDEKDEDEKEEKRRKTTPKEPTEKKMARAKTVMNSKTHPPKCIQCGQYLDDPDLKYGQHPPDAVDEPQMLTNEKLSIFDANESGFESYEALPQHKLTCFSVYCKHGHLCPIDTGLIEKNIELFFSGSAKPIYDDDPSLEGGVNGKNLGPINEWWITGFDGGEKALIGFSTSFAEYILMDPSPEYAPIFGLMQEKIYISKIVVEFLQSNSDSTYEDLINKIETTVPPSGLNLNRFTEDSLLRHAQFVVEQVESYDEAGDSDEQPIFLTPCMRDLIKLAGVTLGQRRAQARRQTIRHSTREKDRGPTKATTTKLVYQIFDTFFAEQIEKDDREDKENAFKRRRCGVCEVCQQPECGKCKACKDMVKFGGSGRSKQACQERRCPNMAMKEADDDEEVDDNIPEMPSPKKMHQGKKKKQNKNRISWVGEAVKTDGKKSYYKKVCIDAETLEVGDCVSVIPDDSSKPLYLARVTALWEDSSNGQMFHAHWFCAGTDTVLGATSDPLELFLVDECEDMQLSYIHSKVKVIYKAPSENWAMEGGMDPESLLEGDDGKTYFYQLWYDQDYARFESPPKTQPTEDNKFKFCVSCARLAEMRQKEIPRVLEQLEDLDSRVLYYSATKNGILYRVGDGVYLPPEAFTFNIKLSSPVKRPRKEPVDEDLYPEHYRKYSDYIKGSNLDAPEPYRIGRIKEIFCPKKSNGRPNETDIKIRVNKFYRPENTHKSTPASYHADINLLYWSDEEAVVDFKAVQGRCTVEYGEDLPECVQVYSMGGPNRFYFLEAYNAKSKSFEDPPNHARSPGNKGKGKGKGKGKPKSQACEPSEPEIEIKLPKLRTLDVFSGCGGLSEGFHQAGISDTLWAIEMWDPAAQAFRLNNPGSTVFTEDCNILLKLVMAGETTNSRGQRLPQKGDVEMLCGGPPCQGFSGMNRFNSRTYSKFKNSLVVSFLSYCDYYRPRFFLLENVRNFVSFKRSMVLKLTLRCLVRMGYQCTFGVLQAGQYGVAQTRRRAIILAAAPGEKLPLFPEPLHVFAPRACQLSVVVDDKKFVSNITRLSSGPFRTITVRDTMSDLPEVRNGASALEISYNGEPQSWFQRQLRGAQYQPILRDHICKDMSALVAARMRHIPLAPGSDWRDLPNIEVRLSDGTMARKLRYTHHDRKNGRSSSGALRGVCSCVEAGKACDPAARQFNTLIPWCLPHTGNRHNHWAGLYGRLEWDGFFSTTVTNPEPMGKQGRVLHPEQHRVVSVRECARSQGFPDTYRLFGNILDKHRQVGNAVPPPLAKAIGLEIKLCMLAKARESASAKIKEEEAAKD
# [23] = molecular target: NADPH oxidase 1 (Homo sapiens, UniProt Q9Y5S8); test: Late-stage luminescence-based cell-based dose response assay to identify inhibitors of NADPH oxidase 1 (NOX1): Synthesized analogs.; type: functional
# Chain of NADPH oxidase 1 (Q9Y5S8 whole entry): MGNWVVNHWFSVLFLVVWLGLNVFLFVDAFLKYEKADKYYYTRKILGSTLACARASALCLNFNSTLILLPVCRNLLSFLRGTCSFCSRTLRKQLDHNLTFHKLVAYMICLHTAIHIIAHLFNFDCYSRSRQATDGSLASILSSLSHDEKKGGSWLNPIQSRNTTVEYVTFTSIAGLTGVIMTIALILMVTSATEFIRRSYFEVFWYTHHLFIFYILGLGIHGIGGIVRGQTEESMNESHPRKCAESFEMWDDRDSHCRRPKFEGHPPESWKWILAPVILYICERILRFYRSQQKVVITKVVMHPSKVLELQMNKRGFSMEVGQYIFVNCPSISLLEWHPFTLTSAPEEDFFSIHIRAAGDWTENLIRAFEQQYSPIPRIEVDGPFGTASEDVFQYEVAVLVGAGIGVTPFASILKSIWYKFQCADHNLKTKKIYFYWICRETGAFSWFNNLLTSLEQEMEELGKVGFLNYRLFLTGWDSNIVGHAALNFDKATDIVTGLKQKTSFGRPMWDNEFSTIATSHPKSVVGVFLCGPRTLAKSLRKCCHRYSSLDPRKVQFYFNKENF
# [24] = tested on: Vero; test: Vero cell viability after compound exposure – synthesized analogs, set II, cytotoxicity control for West Nile virus antiviral project, SAR follow-up (AID 2402); type: functional; conditions: Chlorocebus sabaeus
# [25] = molecular target: Genome polyprotein (dengue virus type 2, UniProt P29990); test: flavivirus cap methylation enzyme inhibition – biochemical, confirmation dose response, primary screen (AID 588689); type: functional
# Chain of Genome polyprotein (P29990 2492-3391 limits assumed): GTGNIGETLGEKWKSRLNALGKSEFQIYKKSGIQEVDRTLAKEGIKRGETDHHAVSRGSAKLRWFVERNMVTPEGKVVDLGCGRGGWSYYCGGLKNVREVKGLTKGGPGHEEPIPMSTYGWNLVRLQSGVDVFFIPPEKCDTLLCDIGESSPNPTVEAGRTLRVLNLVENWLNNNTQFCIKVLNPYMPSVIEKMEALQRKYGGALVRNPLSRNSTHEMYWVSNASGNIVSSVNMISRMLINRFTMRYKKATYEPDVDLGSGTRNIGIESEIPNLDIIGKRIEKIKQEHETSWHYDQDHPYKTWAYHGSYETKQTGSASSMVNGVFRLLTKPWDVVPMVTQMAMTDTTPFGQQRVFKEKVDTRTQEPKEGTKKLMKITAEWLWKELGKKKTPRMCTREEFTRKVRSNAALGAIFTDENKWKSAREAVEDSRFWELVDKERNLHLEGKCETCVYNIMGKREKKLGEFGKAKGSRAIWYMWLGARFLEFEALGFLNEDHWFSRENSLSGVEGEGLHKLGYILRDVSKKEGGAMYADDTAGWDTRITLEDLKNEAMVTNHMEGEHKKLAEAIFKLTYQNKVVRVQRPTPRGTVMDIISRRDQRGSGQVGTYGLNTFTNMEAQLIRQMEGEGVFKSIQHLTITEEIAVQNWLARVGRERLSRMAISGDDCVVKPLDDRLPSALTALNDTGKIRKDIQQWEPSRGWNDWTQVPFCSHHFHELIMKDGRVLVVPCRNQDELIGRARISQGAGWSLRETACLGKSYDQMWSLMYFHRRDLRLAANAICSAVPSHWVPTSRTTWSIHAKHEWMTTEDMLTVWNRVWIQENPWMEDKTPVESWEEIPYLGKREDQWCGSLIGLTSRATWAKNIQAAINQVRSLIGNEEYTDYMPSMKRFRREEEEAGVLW
# [26] = molecular target: Glyceraldehyde-3-phosphate dehydrogenase (Homo sapiens, UniProt P04406)
# [27] = molecular target: T4, Bcl-2-related protein A1 (Mus musculus, UniProt Q07440); test: small-molecule antagonists of Bfl-1/BH3 interaction – biochemical, TR-FRET, mouse Bfl-1, confirmation (AID 621);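 note: TR-FRET binding of GST-Bfl-1 to FITC-labelled Bid peptide via terbium antibody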
# T4 sequence (Q07440 whole entry): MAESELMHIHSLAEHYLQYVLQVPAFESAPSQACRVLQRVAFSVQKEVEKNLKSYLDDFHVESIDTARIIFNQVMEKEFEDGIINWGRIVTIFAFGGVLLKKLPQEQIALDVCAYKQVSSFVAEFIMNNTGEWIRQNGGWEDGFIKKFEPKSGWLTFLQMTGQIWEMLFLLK
# [28] = molecular target: T4, Bcl-2-related protein A1; test: displacement of Bid BH3 peptide from Bfl-1 – biochemical, fluorescence polarization, FITC-Bid, mouse, primary screen (AID 432)
# [29] = molecular target: T4, Bcl-2-related protein A1; test: Bfl-1 binding inhibitors, SAR follow-up, biochemical, fluorescence polarization (AID 1070)
# [30] = molecular target: Diphosphomevalonate decarboxylase (Streptococcus pneumoniae serotype 2 (strain D39 / NCTC 7466), UniProt Q9FD53); test: diphosphomevalonate decarboxylase inhibitor confirmation – biochemical, cuvette format, coupled NADH fluorescence (AID 1028); type: functional
# Chain of Diphosphomevalonate decarboxylase (Q9FD53 whole entry): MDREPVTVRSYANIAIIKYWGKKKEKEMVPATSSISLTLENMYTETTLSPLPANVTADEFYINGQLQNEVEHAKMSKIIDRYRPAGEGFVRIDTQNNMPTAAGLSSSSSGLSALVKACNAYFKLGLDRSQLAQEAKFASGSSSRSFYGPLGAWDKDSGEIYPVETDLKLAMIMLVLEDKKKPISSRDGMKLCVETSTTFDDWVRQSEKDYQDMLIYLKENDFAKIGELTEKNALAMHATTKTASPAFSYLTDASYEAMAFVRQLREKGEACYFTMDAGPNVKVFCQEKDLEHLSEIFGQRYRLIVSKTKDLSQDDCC
# [31] = molecular target: Sphingosine 1-phosphate receptor 2 (Homo sapiens, UniProt O95136); test: Dose Response Cell Based Assay for Antagonists of the S1P2 Receptor. [Related pubchem assays: 856, 736 ]; type: functional
# Chain of Sphingosine 1-phosphate receptor 2 (O95136 whole entry): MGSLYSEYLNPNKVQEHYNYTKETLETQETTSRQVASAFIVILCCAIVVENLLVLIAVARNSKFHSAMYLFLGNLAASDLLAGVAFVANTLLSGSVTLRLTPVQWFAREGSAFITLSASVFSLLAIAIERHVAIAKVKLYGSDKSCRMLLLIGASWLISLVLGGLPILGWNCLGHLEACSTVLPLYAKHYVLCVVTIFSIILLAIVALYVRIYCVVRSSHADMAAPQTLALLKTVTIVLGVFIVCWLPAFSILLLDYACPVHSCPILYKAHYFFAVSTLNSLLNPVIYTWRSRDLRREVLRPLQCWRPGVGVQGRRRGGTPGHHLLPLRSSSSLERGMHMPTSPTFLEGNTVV
structure (smiles),measurement,setting,value
Cc1ccccc1NC1=C/C(=N\S(=O)(=O)c2cccs2)c2ccccc2C1=O,IC50,[1],0.438 µM (active)
same,IC50,[2],0.44 µM (active)
same,EC50,[3],0.654 µM (active)
same,IC50,[4],1.83 µM (active)
same,EC50,[5],1.95 µM (active)
same,EC50,[6],1.04 µM (active)
same,IC50,[7],0.335 µM (active)
same,CC50,[8],4.33 µM (active)
same,AC50,[9],> 120 µM (inactive)
same,EC50,[10],4.55 µM (active)
same,CC50,[11],3.13 µM (active)
same,IC50,[12],> 22.3 µM (not active)
same,EC50,[13],0.701 µM (active)
same,IC50,[14],692 µM (inactive)
same,IC50,[15],> 69.5 µM (not active)
same,AC50,[16],0.413 µM (active)
CCN(CC)C(=O)CN1CCN(c2ncccn2)CC1,EC50,[17],16.1 µM (not active)
O=C1CCCC2=C1C(c1ccco1)Nc1ccc3ccccc3c12 (stereo not drawn),IC50,[18],11.8 µM (active)
same,CC50,[19],> 40 µM (active)
same,IC50,[20],7.53 µM (active)
same,IC50,[21],3.2 µM (active)
same,IC50,[22],6.62 µM (active)
O=C(/C=C/c1ccccc1)N1c2ccccc2Sc2ccc(C(F)(F)F)cc21,IC50,[23],> 50 µM (not active)
O=C(CSc1nc2ccc(F)cc2c(=O)n1-c1ccccc1)Nc1ccc2c(c1)CCC2,CC50,[24],> 200 µM (active)
CN1CCN(C2=C(Cl)C(=O)N(c3ccc(Cl)c(Cl)c3)C2=O)CC1,EC50,[3],2.22 µM (active)
same,IC50,[25],16.9 µM (active)
same,IC50,[26],> 100 µM (not active)
same,IC50,[27],580 nM (active) and 500 nM (active)
same,IC50,[28],0.65 µM (active)
same,AC50,[9],3.75 µM (active)
same,IC50,[29],0.362 µM (active)
O=C(c1cccc(-n2sc3ccccc3c2=O)c1)N1CCOCC1,IC50,[30],23.1 µM (active)
CN(C)/C=N/C(=O)c1sc2cc(C(F)(F)F)cnc2c1-c1ccccc1,IC50,[31],> 30 µM (not active)
